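Five concentrations, 48 hours, 96-well plates. Definition used: TGI = concentration required for complete inhibition of growth.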
Experiments:
Assay in all cases: NCI-60 cell line screen, 48 h
A549 NSCLC = system: A549 NSCLC
OVCAR-4 ovarian = system: OVCAR-4 ovarian
NCI-H23 lung = system: NCI-H23 lung
SNB-19 CNS = system: SNB-19 CNS
NCI-H460 lung = system: NCI-H460 lung
UACC-62 melanoma = system: UACC-62 melanoma
TK-10 renal = system: TK-10 renal
SF-268 CNS = system: SF-268 CNS
U251 CNS = system: U251 CNS
HT29 colon = system: HT29 colon
MDA-N = system: MDA-N
MDA-MB-435 = system: MDA-MB-435
UO-31 renal = system: UO-31 renal
MDA-MB-231 breast = system: MDA-MB-231 breast
DU-145 prostate = system: DU-145 prostate

SMILES	TGI (A549 NSCLC)	TGI (OVCAR-4 ovarian)	TGI (NCI-H23 lung)	TGI (SNB-19 CNS)	TGI (NCI-H460 lung)	TGI (UACC-62 melanoma)	TGI (TK-10 renal)	TGI (SF-268 CNS)	TGI (U251 CNS)	TGI (HT29 colon)	TGI (MDA-N)	TGI (MDA-MB-435)	TGI (UO-31 renal)	TGI (MDA-MB-231 breast)	TGI (DU-145 prostate)
CC(=O)OC1COC(n2c(O)c(N=NC(N)=S)c3cc(Br)ccc32)C(OC(C)=O)C1OC(C)=O (configuration not stated)	> 100 µM	> 100 µM	> 100 µM	> 100 µM	> 100 µM	> 100 µM	> 100 µM	> 100 µM	> 100 µM	> 100 µM	–	–	–	–	–
COC1(OC)c2no[n+]([O-])c2CCC1O (configuration not stated)	> 100 µM	> 100 µM	> 100 µM	> 100 µM	> 100 µM	> 100 µM	> 100 µM	> 100 µM	–	> 100 µM	> 100 µM	> 100 µM	> 100 µM	> 100 µM	> 100 µM
CCOC(=O)c1cccn1S(=O)(=O)c1cc(Cl)ccc1NC(=O)CC	> 100 µM	> 100 µM	–	> 100 µM	> 100 µM	> 100 µM	> 100 µM	–	> 100 µM	–	–	> 100 µM	54 µM	> 100 µM	> 100 µM
O=C(CC(=O)N(C(=O)/C=C\c1ccccc1)c1ccc(Cl)cc1)N1N=C(c2ccccc2)C(N=Nc2cccc([N+](=O)[O-])c2)C1=O (configuration not stated)	> 100 µM	–	40.2 µM	> 100 µM	29.5 µM	42.1 µM	38.9 µM	26.2 µM	33.7 µM	15.2 µM	> 100 µM	> 100 µM	> 100 µM	37.7 µM	91.8 µM
O=c1oc2ccc3ccccc3c2cc1-c1cn2ccccc2n1	> 100 µM	–	> 100 µM	–	> 100 µM	> 100 µM	> 100 µM	> 100 µM	> 100 µM	77.5 µM	> 100 µM	> 100 µM	> 100 µM	> 100 µM	> 100 µM
CCSc1[nH]c(NC(=S)NC(=O)c2ccccc2Cl)c(C(N)=O)c1C(N)=O	> 10 µM	> 10 µM	> 10 µM	–	–	> 10 µM	> 10 µM	> 10 µM	–	> 10 µM	> 10 µM	> 10 µM	–	> 10 µM	> 10 µM
C[C@]12CCC(=O)C=C1CC[C@@H]1[C@@H]2CC[C@]2(C)C(=O)NC(=O)C[C@@H]12	> 100 µM	> 100 µM	> 100 µM	> 100 µM	> 100 µM	> 100 µM	> 100 µM	> 100 µM	> 100 µM	> 100 µM	–	–	> 100 µM	–	–
C[N+](C)(C)CC(=O)N/N=C/c1oc(-c2c(O)ccc3ccccc23)c(-c2c(O)ccc3ccccc23)c1[N+](=O)[O-]	81.5 µM	80.8 µM	37.2 µM	> 100 µM	49.3 µM	18.6 µM	87.1 µM	47.3 µM	47.8 µM	38.5 µM	–	–	36 µM	–	47.6 µM
Cc1cc2ccccc2n2c1nc1ccccc12	> 100 µM	–	> 100 µM	> 100 µM	> 100 µM	> 100 µM	> 100 µM	> 100 µM	> 100 µM	> 100 µM	> 100 µM	> 100 µM	> 100 µM	–	> 100 µM
CS(=O)(=O)c1nc(-c2cc3c(c(S(C)(=O)=O)n2)CCC3)cc2c1CCCCC2	> 100 µM	> 100 µM	> 100 µM	> 100 µM	–	80 µM	> 100 µM	92.2 µM	> 100 µM	> 100 µM	> 100 µM	> 100 µM	> 100 µM	> 100 µM	> 100 µM
C=Cc1ccc(C)[n+](C[Si](C)(C)O[Si](C)(C)C)c1	> 100 µM	> 100 µM	> 100 µM	> 100 µM	–	> 100 µM	–	> 100 µM	> 100 µM	> 100 µM	–	–	> 100 µM	–	–
CC(=O)OCC1=C(CCC#N)N2C(=O)C(NC(=O)Cc3cccs3)C2S(=O)C1 (configuration not stated)	> 100 µM	> 100 µM	> 100 µM	> 100 µM	> 100 µM	> 100 µM	> 100 µM	> 100 µM	> 100 µM	> 100 µM	–	–	> 100 µM	–	–
O=C1/C(=C\c2ccc(O)cc2)CCC/C1=C/c1ccc(Cl)c(Cl)c1	15 µM	5.93 µM	10.1 µM	18.3 µM	–	5.24 µM	10.5 µM	11.9 µM	16 µM	3.54 µM	8.01 µM	9.51 µM	5.6 µM	7.55 µM	9.8 µM
O=C1NC2ON=C(c3ccccc3)C2C2ON=C(c3ccccc3)N12 (configuration not stated)	> 100 µM	–	> 100 µM	> 100 µM	> 100 µM	> 100 µM	> 100 µM	> 100 µM	–	> 100 µM	> 100 µM	–	> 100 µM	> 100 µM	> 100 µM
O=C(c1cccs1)N(C(=S)N1CCN(c2ccccn2)CC1)c1ccccc1	> 100 µM	> 100 µM	> 100 µM	> 100 µM	> 100 µM	> 100 µM	> 100 µM	> 100 µM	> 100 µM	> 100 µM	–	–	> 100 µM	–	–
CCOP(=O)(OCC)/C(C#N)=C/c1ncc[nH]1	> 100 µM	> 100 µM	> 100 µM	> 100 µM	> 100 µM	> 100 µM	–	> 100 µM	> 100 µM	> 100 µM	> 100 µM	> 100 µM	> 100 µM	> 100 µM	> 100 µM
O=C1CCCCC/C1=C\c1cccc(Cl)c1	> 100 µM	83.3 µM	> 100 µM	> 100 µM	87.7 µM	> 100 µM	–	68.2 µM	> 100 µM	> 100 µM	> 100 µM	94.4 µM	> 100 µM	> 100 µM	> 100 µM
CCOC(=O)/C(C#N)=C\c1ccc(N(CCC(=O)O)CCC(=O)O)c(I)c1	> 10 µM	> 10 µM	> 10 µM	> 10 µM	> 10 µM	> 10 µM	> 10 µM	> 10 µM	–	> 10 µM	> 10 µM	> 10 µM	> 10 µM	> 10 µM	> 10 µM

From PubChem BioAssay (NCI)
